Source: patent US8163779B2, “Glucokinase activators” (Takeda San Diego, Inc., priority 2006, dated 2012)
pEC50: −log10 of the molar value. Structures can show the parent of a compound that is named as a salt.

Biological target: T1, glucokinase (GK) (Homo sapiens, UniProt P35557)
T1 construct: I.D. No. 1 corresponds to residues 12-465 of glucokinase; made in house; host or cells: E. coli DH10b-T1r
T1 sequence (P35557 with tags, fused parts or gaps isoform P35557-2): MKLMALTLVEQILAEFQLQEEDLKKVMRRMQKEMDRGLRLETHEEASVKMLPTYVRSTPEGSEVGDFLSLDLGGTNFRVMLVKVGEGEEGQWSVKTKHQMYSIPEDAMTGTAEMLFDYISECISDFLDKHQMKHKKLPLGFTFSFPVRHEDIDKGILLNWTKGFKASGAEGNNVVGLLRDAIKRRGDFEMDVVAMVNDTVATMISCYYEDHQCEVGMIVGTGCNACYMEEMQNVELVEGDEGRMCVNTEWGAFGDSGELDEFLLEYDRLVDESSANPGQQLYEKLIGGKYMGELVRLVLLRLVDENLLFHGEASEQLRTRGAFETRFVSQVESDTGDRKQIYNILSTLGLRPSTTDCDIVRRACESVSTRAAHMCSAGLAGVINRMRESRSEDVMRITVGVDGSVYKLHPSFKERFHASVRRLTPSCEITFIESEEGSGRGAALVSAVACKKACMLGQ
Assay: enzymatic glucokinase activity assay (ATP consumption, KinaseGlo luminescence)
Assay type: biochemical
Settings: recombinant GK residues 12-465; 5 μM ATP, 5 mM Glucose; Kact = concentration that displays 50% of the maximal increase in GK activity; read-out: pKact
In short: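 Recombinant human glucokinase expressed in E. coli was run in 25 mM Hepes pH 7.2 with 10 mM MgCl2, 1 mM DTT, 5 μM ATP, 5 mM glucose and 2% DMSO for 60 min at room temperature. Remaining ATP was read by KinaseGlo luminescence; pKact came from non-linear curve fits.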

| Structure (SMILES) | pEC50 |
| --- | --- |
| Cc1cc(S(C)(=O)=O)cc(=O)n1C(CC1CCOCC1)C(=O)Nc1nccs1 (stereo not shown) [Example 7, 2-(6-methyl-4-(methylsulfonyl)-2-oxopyridin-1(2H)-yl)-3-(tetrahydro-2H-pyran-4-yl)-N-(thiazol-2-yl)propanamide trifluoroacetic acid salt] | < 4.80 |
| O=C(Nc1nccs1)C(CC1CCOCC1)n1cc(S(=O)(=O)N2CCCC2)ccc1=O (stereo not shown) [Example 139, 2-(2-oxo-5-(pyrrolidin-1-ylsulfonyl)pyridin-1(2H)-yl)-3-(tetrahydro-2H-pyran-4-yl)-N-(thiazol-2-yl)propanamide] | 4.80 to 5.80 |
| Cc1cc(S(=O)(=O)C2CCCC2)cc(=O)n1C(CCC(C)C)C(=O)Nc1nccs1 (stereo not shown) [Example 19, 2-(4-(cyclopentylsulfonyl)-6-methyl-2-oxopyridin-1(2H)-yl)-5-methyl-N-(thiazol-2-yl)hexanamide] | 4.80 to 5.80 |
| Cc1cc(-c2ccoc2)cc(=O)n1[C@@H](CC1CCCCC1)C(=O)Nc1nccs1 [Example 99, (S)-3-cyclohexyl-2-(4-(furan-3-yl)-6-methyl-2-oxopyridin-1(2H)-yl)-N-(thiazol-2-yl)propanamide] | < 4.80 |
| Cc1cc(S(=O)(=O)C2CCOCC2)cc(=O)n1[C@@H](CC1CCCC1)C(=O)Nc1ncc(F)s1 [Example 193, (S)-3-cyclopentyl-N-(5-fluorothiazol-2-yl)-2-(6-methyl-2-oxo-4-(tetrahydro-2H-pyran-4-ylsulfonyl)pyridin-1(2H)-yl)propanamide] | 4.80 to 5.80 |
| Cc1cc(-c2cccc(Cl)c2)cc(=O)n1[C@@H](CC1CCCCC1)C(=O)Nc1nccs1 [Example 92, (S)-2-(4-(3-chlorophenyl)-6-methyl-2-oxopyridin-1(2H)-yl)-3-cyclohexyl-N-(thiazol-2-yl)propanamide] | < 4.80 |
| Cc1cc(S(=O)(=O)C2CCCC2)cc(=O)n1C(CC1CCOCC1)C(=O)Nc1cnccn1 (stereo not shown) [Example 177, 2-(4-(cyclopentylsulfonyl)-6-methyl-2-oxopyridin-1(2H)-yl)-N-(pyrazin-2-yl)-3-(tetrahydro-2H-pyran-4-yl)propanamide] | < 4.80 |
| Cc1c(S(=O)(=O)C2CCCC2)c(C)c(=O)n(C(CC2CCOCC2)C(=O)Nc2ncc(Cl)s2)c1C (stereo not shown) [Example 118, N-(5-chlorothiazol-2-yl)-2-(4-(cyclopentylsulfonyl)-3,5,6-trimethyl-2-oxopyridin-1(2H)-yl)-3-(tetrahydro-2H-pyran-4-yl)propanamide] | > 5.80 |
| Cc1cc(S(=O)(=O)C2CCCC2)cc(=O)n1[C@@H](CC1CCOCC1)C(=O)Nc1ccc(Cl)cn1 [Example 166, (S)-N-(5-chloropyridin-2-yl)-2-(4-(cyclopentylsulfonyl)-6-methyl-2-oxopyridin-1(2H)-yl)-3-(tetrahydro-2H-pyran-4-yl)propanamide] | > 5.80 |
| Cc1cc(-c2cc3ccccc3s2)cc(=O)n1[C@@H](CC1CCCCC1)C(=O)Nc1nccs1 [Example 108, (S)-2-(4-(benzo[b]thiophen-2-yl)-6-methyl-2-oxopyridin-1(2H)-yl)-3-cyclohexyl-N-(thiazol-2-yl)propanamide] | < 4.80 |
| Cc1cc(S(=O)(=O)Cc2ccco2)cc(=O)n1[C@H](CC1CCOCC1)C(=O)Nc1ncc(Cl)s1 [Example 142, (R)-N-(5-chlorothiazol-2-yl)-2-(4-(furan-2-ylmethylsulfonyl)-6-methyl-2-oxopyridin-1(2H)-yl)-3-(tetrahydro-2H-pyran-4-yl)propanamide] | < 4.80 |
| Cc1cc(S(=O)(=O)C2CC2)cc(=O)n1C(CC1CCOCC1)C(=O)Nc1ncc(Cl)s1 (stereo not shown) [Example 157, N-(5-chlorothiazol-2-yl)-2-(4-(cyclopropylsulfonyl)-6-methyl-2-oxopyridin-1(2H)-yl)-3-(tetrahydro-2H-pyran-4-yl)propanamide] | 4.80 to 5.80 |
| Cc1c(S(=O)(=O)C2CCCC2)c(C)c(=O)n([C@@H](CC2CCOCC2)C(=O)Nc2ncc(Cl)s2)c1C [Example 135, (S)-N-(5-chlorothiazol-2-yl)-2-(4-(cyclopentylsulfonyl)-3,5,6-trimethyl-2-oxopyridin-1(2H)-yl)-3-(tetrahydro-2H-pyran-4-yl)propanamide] | > 5.80 |
| Cc1cc(S(=O)(=O)C2CC2)cc(=O)n1[C@H](CC1CCCC1)C(=O)Nc1ncc(F)s1 [Example 163, (R)-3-cyclopentyl-2-(4-(cyclopropylsulfonyl)-6-methyl-2-oxopyridin-1(2H)-yl)-N-(5-fluorothiazol-2-yl)propanamide] | < 4.80 |
| Cc1cc(S(=O)(=O)C2CC2)c(N)c(=O)n1[C@H](CC1CCCC1)C(=O)Nc1ncc(F)s1 [Example 154, (R)-2-(3-amino-4-(cyclopropylsulfonyl)-6-methyl-2-oxopyridin-1(2H)-yl)-3-cyclopentyl-N-(5-fluorothiazol-2-yl)propanamide] | 4.80 to 5.80 |
| Cc1cc(-c2ccc(C#N)cc2)cc(=O)n1[C@@H](CC1CCCCC1)C(=O)Nc1nccs1 [Example 98, (S)-2-(4-(4-cyanophenyl)-6-methyl-2-oxopyridin-1(2H)-yl)-3-cyclohexyl-N-(thiazol-2-yl)propanamide] | 4.80 to 5.80 |
| CCCCC(C(=O)Nc1nccs1)n1c(C)cc(S(=O)(=O)C2CCCC2)cc1=O (stereo not shown) [Example 18, 2-(4-(cyclopentylsulfonyl)-6-methyl-2-oxopyridin-1(2H)-yl)-N-(thiazol-2-yl)hexanamide] | 4.80 to 5.80 |
| Cn1ccc(NC(=O)[C@@H](CC2CCOCC2)n2ccc(S(=O)(=O)C3CC3)cc2=O)n1 [Example 73, (R)-2-(4-(cyclopropylsulfonyl)-2-oxopyridin-1(2H)-yl)-N-(1-methyl-1H-pyrazol-3-yl)-3-(tetrahydro-2H-pyran-4-yl)propanamide] | < 4.80 |
| Cc1c(S(=O)(=O)C2CCCC2)cc(=O)n([C@H](CC2CCOCC2)C(=O)Nc2ncc(F)s2)c1C [Example 153, (R)-2-(4-(cyclopentylsulfonyl)-5,6-dimethyl-2-oxopyridin-1(2H)-yl)-N-(5-fluorothiazol-2-yl)-3-(tetrahydro-2H-pyran-4-yl)propanamide] | > 5.80 |
| Cc1cc(-c2cccnc2)cc(=O)n1[C@@H](CC1CCCCC1)C(=O)Nc1nccs1 [Example 100, (S)-3-cyclohexyl-2-(6-methyl-2-oxo-4-(pyridin-3-yl)pyridin-1(2H)-yl)-N-(thiazol-2-yl)propanamide] | 4.80 to 5.80 |
| Cc1cc(S(=O)(=O)Cc2cccs2)cc(=O)n1[C@@H](CC1CCCCC1)C(=O)Nc1ncc(Cl)s1 [Example 85, (S)-N-(5-chlorothiazol-2-yl)-3-cyclohexyl-2-(6-methyl-2-oxo-4-(thiophen-2-ylmethylsulfonyl)pyridin-1(2H)-yl)propanamide] | > 5.80 |
| O=C(Nc1nccs1)C(CC1CCCCC1)n1ccc(S(=O)(=O)C2CCCC2)cc1=O (stereo not shown) [Example 8, 3-cyclohexyl-2-(4-(cyclopentylsulfonyl)-2-oxopyridin-1(2H)-yl)-N-(thiazol-2-yl)propanamide trifluoroacetic acid salt] | > 5.80 |
| COc1ccc2nc(NC(=O)C(CC3CCCCC3)n3ccc(S(=O)(=O)C4CC4)cc3=O)sc2n1 (stereo not shown) [Example 68, 3-cyclohexyl-2-(4-(cyclopropylsulfonyl)-2-oxopyridin-1(2H)-yl)-N-(5-methoxythiazolo[5,4-b]pyridin-2-yl)propanamide] | > 5.80 |
| CS(=O)(=O)c1ccn(C(Cc2ccsc2)C(=O)Nc2ncc(Cl)s2)c(=O)c1 (stereo not shown) [Example 15, N-(5-chlorothiazol-2-yl)-2-(4-(methylsulfonyl)-2-oxopyridin-1(2H)-yl)-3-(thiophen-3-yl)propanamide] | < 4.80 |
| CS(=O)(=O)c1ccn(C(Cc2cc(F)ccc2Cl)C(=O)Nc2ncc(Cl)s2)c(=O)c1 (stereo not shown) [Example 9, 3-(2-chloro-5-fluorophenyl)-N-(5-chlorothiazol-2-yl)-2-(4-(methylsulfonyl)-2-oxopyridin-1(2H)-yl)propanamide] | < 4.80 |
| Cc1cc(S(=O)(=O)C2CC2)cc(=O)n1C(CC(C)(C)C)C(=O)Nc1ncc(Cl)s1 (stereo not shown) [Example 25, N-(5-chlorothiazol-2-yl)-2-(4-(cyclopropylsulfonyl)-6-methyl-2-oxopyridin-1(2H)-yl)-4,4-dimethylpentanamide] | > 5.80 |
| Cc1cc(S(=O)(=O)C2CCCC2)cc(=O)n1[C@H](CC1CCOCC1)C(=O)Nc1ncc(F)s1 [Example 39, (R)-2-(4-(cyclopentylsulfonyl)-6-methyl-2-oxopyridin-1(2H)-yl)-N-(5-fluorothiazol-2-yl)-3-(tetrahydro-2H-pyran-4-yl)propanamide] | < 4.80 |
| N#Cc1cnc(NC(=O)[C@H](CC2CCOCC2)n2ccc(S(=O)(=O)C3CCCC3)cc2=O)s1 [Example 57, (S)-N-(5-cyanothiazol-2-yl)-2-(4-(cyclopentylsulfonyl)-2-oxopyridin-1(2H)-yl)-3-(tetrahydro-2H-pyran-4-yl)propanamide] | 4.80 to 5.80 |
